Results reported in US20130331412A9, “Pharmaceutical Compositions and Administrations Thereof” (VERTEX PHARMACEUTICALS INCORPORATED, priority 2010, published 2013).

Key:
Format in all cases: cell-based
ΔF508-CFTR = biological target: T1, ΔF508-CFTR (Homo sapiens, UniProt P13569, DEL508-508); assay: Membrane potential optical assay for ΔF508-CFTR potentiation (FLIPR III); settings: relative efficacy; ΔF508-CFTR NIH 3T3 cells
T1 construct: expressed in transfected cells; host or cells: NIH3T3 mouse fibroblasts
Excerpt: The assay utilizes fluorescent voltage sensing dyes to measure changes in membrane potential using a fluorescent plate reader (e.g., FLIPR III, Molecular Devices, Inc.) as a readout for increase in functional ΔF508-CFTR in NIH 3T3 cells. The driving force for the response is the creation of a chloride ion gradient in conjunction with channel activation by a single liquid addition step after the cells have previously been treated with compounds and subsequently loaded with a voltage sensing dye. To identify potentiators of ΔF508-CFTR, a double-addition HTS assay format was developed. This HTS assay utilizes fluorescent voltage sensing dyes to measure changes in membrane potential on the FLIPR III as a measurement for increase in gating (conductance) of ΔF508 CFTR in temperature-corrected ΔF508 CFTR NIH 3T3 cells. The driving force for the response is a Cl^− ion gradient in conjunction with channel activation with forskolin in a single liquid addition step using a fluorescent plate reader such as FLIPR III after the cells have previously been treated with potentiator compounds (or DMSO vehicle control) and subsequently loaded with a redistribution dye. Bath Solution #1: (in mM) NaCl 160, KCl 4.5, CaCl2 2, MgCl2 1, HEPES10, pH 7.4 with NaOH. Chloride-free bath solution: Chloride salts in Bath Solution #1 (above) are substituted with gluconate salts. […]

human CFTR mutant A455E = biological target: T2, human CFTR mutant A455E (Homo sapiens, UniProt P13569, A455E); assay: FRT cell Ussing chamber chloride transport assay; settings: FRT cells expressing A455E CFTR
T2 construct: expressed in transfected cells; host or cells: Fisher rat thyroid (FRT) FlpIn cells, pcDNA5/FRT
Excerpt: (§1) DNA cloning: Wild-type CFTR coding region was inserted into pcDNA5/FRT (Invitrogen, San Diego, Calif.) between EcoRV and ApaI.
(§2) Single CFTR gene mutations were introduced into the wild-type CFTR coding sequence by using QuickChange XL site-directed mutagenesis kit (Stratagene, Cambridge, UK). The CFTR coding region as well as its promoter sequence and 3′ untranslated sequence was fully sequenced to confirm the mutagenesis reaction.
(§3) The CFTR gene was stably expressed in Fisher rat thyroid (FRT) cells through FlpIn system. The FRT-FlpIn host cell line was generated by stably transfecting FRT cells with pFRT/lacZeo. The single integration of a FRT site was confirmed by Southern blot. After the mutant CFTR DNA was transfected into the FRT-FlpIn host cell line, the cells were incubate at 37° C. in Coon's modified Ham's F12 containing 10% FBS, 1% Pen/Strep, and 36 ml of Na− Bicarbonate for up to 8 passages under hygromycin selection (200 ug/ml).
(§4) All cells were grown on Costar® Snapwell™ cell culture inserts at maintained at 37° C. prior to recording. The cell culture inserts were mounted into an Ussing chamber (VCC MC8; Physiologic Instruments, Inc., San Diego, Calif.) to record ISC in the voltage-clamp mode (Vhold=0 mV). For FRT cells, the basolateral membrane was permeabilized with 360 μg/ml Nystatin and a basolateral to apical Cl− gradient was established. The basolateral bath solution contained (in mM); 135 NaCl, 1.2 CaCl2, 1.2 MgCl2, 2.4 K2HPO4, 0.6 KHPO4, 10 N-2-hydroxyethylpiperazine-N′-2-ethanesulfonic acid (HEPES), and 10 dextrose (titrated to pH 7.4 with NaOH). The apical NaCl was replaced by equimolar Na+ gluconate (titrated to pH 7.4 with NaOH). For HBE cells, the ISC was measured in the presence of a basolateral to apical Cl− gradient. The normal Cl− solution contained (in mM) 145 NaCl, 3.3 K2HPO4, 1.2 MgCl2, 1.2 CaCl2, 10 Glucose, 10 HEPES (pH adjusted to 7.35 with NaOH) and the low Cl− solution contained (in mM) 145 NaGluconate, 1.2 MgCl2, 1.2 CaCl2, 10 glucose, 10 HEPES (pH adjusted to 7.35 with NaOH). All recordings were digitally acquired using a Acquire and Analyze software (version 2; Physiologic Instruments, Inc. San Diego, Calif.).
(§5) The 10 μM forskolin stimulated response in FRT cell expressing different mutant CFTR forms or in HBE cells isolated from CF patients was normalized to the 10 μM forskolin-stimulated response in FRT cells expressing wild-type CFTR or in HBE isolated from non-CF individuals and expressed as % wild-type CFTR. In HBE, amiloride was added prior to forskolin application to block the epithelial Na+ channel.

human CFTR mutant D110E = biological target: T3, human CFTR mutant D110E (Homo sapiens, UniProt P13569, D110E); assay: FRT cell Ussing chamber chloride transport assay; settings: FRT cells expressing D110E CFTR
T3 construct: expressed in transfected cells; host or cells: Fisher rat thyroid (FRT) FlpIn cells, pcDNA5/FRT
Excerpt: as §1, §2, §3, §4, §5

human CFTR mutant D110H = biological target: T4, human CFTR mutant D110H (Homo sapiens, UniProt P13569, D110H); assay: FRT cell Ussing chamber chloride transport assay; settings: FRT cells expressing D110H CFTR
T4 construct: expressed in transfected cells; host or cells: Fisher rat thyroid (FRT) FlpIn cells, pcDNA5/FRT
Excerpt: as §1, §2, §3, §4, §5

human CFTR mutant D1152H = biological target: T5, human CFTR mutant D1152H (Homo sapiens, UniProt P13569, D1152H); assay: FRT cell Ussing chamber chloride transport assay; settings: FRT cells expressing D1152H CFTR
T5 construct: expressed in transfected cells
Excerpt: as §1, §2, §3, §4, §5

human CFTR mutant D1270N = biological target: T6, human CFTR mutant D1270N (Homo sapiens, UniProt P13569, D1270N); assay: FRT cell Ussing chamber chloride transport assay; settings: FRT cells expressing D1270N CFTR
T6 construct: expressed in transfected cells; host or cells: Fisher rat thyroid (FRT) FlpIn cells, pcDNA5/FRT
Excerpt: as §1, §2, §3, §4, §5

human CFTR mutant D579G = biological target: T7, human CFTR mutant D579G (Homo sapiens, UniProt P13569, D579G); assay: FRT cell Ussing chamber chloride transport assay; settings: FRT cells expressing D579G CFTR
T7 construct: expressed in transfected cells; host or cells: Fisher rat thyroid (FRT) FlpIn cells, pcDNA5/FRT
Excerpt: as §1, §2, §3, §4, §5

human CFTR mutant E56K = biological target: T8, human CFTR mutant E56K (Homo sapiens, UniProt P13569, E56K); assay: FRT cell Ussing chamber chloride transport assay; settings: FRT cells expressing E56K CFTR
T8 construct: expressed in transfected cells; host or cells: Fisher rat thyroid (FRT) FlpIn cells, pcDNA5/FRT
Excerpt: as §1, §2, §3, §4, §5

human CFTR mutant F1074L = biological target: T9, human CFTR mutant F1074L (Homo sapiens, UniProt P13569, F1074L); assay: FRT cell Ussing chamber chloride transport assay; settings: FRT cells expressing F1074L CFTR
T9 construct: expressed in transfected cells; host or cells: Fisher rat thyroid (FRT) FlpIn cells, pcDNA5/FRT
Excerpt: as §1, §2, §3, §4, §5

human CFTR mutant G1244E = biological target: T10, human CFTR mutant G1244E (Homo sapiens, UniProt P13569, G1244E); assay: FRT cell Ussing chamber chloride transport assay; settings: FRT cells expressing G1244E CFTR
T10 construct: expressed in transfected cells; host or cells: Fisher rat thyroid (FRT) FlpIn cells, pcDNA5/FRT
Excerpt: as §1, §2, §3, §4, §5

human CFTR mutant G1349D = biological target: T11, human CFTR mutant G1349D (Homo sapiens, UniProt P13569, G1349D); assay: FRT cell Ussing chamber chloride transport assay; settings: FRT cells expressing G1349D CFTR
T11 construct: expressed in transfected cells; host or cells: Fisher rat thyroid (FRT) FlpIn cells, pcDNA5/FRT
Excerpt: as §1, §2, §3, §4, §5

human CFTR mutant G178R = biological target: T12, human CFTR mutant G178R (Homo sapiens, UniProt P13569, G178R); assay: FRT cell Ussing chamber chloride transport assay; settings: FRT cells expressing G178R CFTR
T12 construct: expressed in transfected cells; host or cells: Fisher rat thyroid (FRT) FlpIn cells, pcDNA5/FRT
Excerpt: as §1, §2, §3, §4, §5

human CFTR mutant G551S = biological target: T13, human CFTR mutant G551S (Homo sapiens, UniProt P13569, G551S); assay: FRT cell Ussing chamber chloride transport assay; settings: FRT cells expressing G551S CFTR
T13 construct: expressed in transfected cells; host or cells: Fisher rat thyroid (FRT) FlpIn cells, pcDNA5/FRT
Excerpt: as §1, §2, §3, §4, §5

T12 sequence (P13569 whole entry G178R): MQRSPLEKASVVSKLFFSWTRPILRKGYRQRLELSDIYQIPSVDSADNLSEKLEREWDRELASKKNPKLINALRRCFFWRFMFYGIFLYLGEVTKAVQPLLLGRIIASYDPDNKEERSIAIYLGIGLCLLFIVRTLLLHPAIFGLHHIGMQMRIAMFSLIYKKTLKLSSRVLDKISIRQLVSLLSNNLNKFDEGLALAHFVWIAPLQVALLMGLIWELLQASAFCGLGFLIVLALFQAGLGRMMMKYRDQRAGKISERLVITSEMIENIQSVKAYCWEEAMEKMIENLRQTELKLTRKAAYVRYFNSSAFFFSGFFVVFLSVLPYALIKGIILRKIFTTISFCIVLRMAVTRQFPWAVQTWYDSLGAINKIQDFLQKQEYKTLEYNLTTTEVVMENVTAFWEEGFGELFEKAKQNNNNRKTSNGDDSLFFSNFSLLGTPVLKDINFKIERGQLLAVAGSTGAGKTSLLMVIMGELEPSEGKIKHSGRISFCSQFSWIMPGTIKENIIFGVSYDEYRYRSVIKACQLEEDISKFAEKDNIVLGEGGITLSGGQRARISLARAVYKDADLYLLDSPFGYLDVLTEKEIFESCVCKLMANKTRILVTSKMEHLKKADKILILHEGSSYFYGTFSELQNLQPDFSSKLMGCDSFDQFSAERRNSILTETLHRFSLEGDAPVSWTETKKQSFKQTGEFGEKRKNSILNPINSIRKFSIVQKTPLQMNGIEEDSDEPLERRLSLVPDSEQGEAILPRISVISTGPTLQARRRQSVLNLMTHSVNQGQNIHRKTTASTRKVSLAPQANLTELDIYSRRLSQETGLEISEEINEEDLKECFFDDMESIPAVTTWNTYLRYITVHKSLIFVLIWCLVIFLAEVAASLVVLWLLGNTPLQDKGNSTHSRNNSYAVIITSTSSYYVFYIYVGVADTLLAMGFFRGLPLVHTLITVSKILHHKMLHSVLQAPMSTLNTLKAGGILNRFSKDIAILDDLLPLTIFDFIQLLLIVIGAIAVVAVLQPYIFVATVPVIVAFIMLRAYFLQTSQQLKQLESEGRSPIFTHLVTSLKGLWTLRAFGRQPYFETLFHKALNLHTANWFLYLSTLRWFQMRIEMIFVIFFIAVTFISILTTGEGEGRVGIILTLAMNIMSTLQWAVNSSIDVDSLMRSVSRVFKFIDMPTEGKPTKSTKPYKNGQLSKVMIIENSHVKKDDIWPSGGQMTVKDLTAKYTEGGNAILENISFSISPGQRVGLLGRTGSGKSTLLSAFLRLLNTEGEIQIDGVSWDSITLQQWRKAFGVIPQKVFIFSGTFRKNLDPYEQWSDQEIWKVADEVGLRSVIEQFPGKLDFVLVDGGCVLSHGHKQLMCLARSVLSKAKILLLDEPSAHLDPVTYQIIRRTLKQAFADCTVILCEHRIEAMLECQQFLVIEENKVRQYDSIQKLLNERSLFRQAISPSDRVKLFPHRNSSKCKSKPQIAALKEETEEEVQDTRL
T7 sequence (P13569 whole entry D579G): as the sequence (P13569 whole entry G178R) above, with R178G, D579G counted along it
T4 sequence (P13569 whole entry D110H): as the sequence (P13569 whole entry G178R) above, with D110H, R178G counted along it
T6 sequence (P13569 whole entry D1270N): as the sequence (P13569 whole entry G178R) above, with R178G, D1270N counted along it
T1 sequence (P13569 with tags, fused parts or gaps DEL508-508): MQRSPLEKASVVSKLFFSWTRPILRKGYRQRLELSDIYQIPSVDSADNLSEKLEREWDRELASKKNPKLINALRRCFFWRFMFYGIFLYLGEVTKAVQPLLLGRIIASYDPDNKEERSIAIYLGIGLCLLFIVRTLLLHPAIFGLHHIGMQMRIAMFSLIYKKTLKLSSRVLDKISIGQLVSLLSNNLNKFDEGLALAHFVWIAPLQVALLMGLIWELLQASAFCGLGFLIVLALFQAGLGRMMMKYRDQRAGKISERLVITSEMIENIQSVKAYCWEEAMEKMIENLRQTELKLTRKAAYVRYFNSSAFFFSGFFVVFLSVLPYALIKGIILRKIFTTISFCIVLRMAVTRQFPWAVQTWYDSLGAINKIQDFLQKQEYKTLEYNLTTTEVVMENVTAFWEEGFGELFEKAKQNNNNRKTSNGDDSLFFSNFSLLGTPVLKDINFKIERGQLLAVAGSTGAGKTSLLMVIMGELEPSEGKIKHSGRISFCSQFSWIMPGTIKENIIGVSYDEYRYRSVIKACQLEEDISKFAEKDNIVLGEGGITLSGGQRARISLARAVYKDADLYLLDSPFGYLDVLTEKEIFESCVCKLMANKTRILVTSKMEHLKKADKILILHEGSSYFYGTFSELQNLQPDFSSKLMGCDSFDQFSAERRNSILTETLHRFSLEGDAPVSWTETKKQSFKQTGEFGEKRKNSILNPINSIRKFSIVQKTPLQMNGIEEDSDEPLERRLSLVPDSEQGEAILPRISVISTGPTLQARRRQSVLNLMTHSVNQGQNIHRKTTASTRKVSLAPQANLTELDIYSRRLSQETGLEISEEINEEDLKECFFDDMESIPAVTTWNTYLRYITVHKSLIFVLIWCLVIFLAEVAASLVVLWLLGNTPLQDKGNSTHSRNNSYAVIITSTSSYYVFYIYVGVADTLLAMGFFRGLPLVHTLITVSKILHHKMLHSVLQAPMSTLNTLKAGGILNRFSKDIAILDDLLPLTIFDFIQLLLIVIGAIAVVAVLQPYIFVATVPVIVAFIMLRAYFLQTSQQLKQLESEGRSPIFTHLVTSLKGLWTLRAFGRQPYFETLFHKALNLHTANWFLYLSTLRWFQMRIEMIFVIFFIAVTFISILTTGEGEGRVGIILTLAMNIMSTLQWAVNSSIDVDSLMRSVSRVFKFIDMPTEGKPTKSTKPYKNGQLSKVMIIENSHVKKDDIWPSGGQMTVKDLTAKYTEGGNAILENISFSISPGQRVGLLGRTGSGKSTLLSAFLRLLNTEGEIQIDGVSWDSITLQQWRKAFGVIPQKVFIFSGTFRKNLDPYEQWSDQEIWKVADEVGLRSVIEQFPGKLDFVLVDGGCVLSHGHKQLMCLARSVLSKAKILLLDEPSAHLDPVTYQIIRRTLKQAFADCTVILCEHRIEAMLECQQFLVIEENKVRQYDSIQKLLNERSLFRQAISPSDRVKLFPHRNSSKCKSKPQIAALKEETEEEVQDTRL
T10 sequence (P13569 whole entry G1244E): as the sequence (P13569 whole entry G178R) above, with R178G, G1244E counted along it
T5 sequence (P13569 whole entry D1152H): as the sequence (P13569 whole entry G178R) above, with R178G, D1152H counted along it
T9 sequence (P13569 whole entry F1074L): as the sequence (P13569 whole entry G178R) above, with R178G, F1074L counted along it
T11 sequence (P13569 whole entry G1349D): as the sequence (P13569 whole entry G178R) above, with R178G, G1349D counted along it
T8 sequence (P13569 whole entry E56K): as the sequence (P13569 whole entry G178R) above, with E56K, R178G counted along it
T3 sequence (P13569 whole entry D110E): as the sequence (P13569 whole entry G178R) above, with D110E, R178G counted along it
T2 sequence (P13569 whole entry A455E): as the sequence (P13569 whole entry G178R) above, with R178G, A455E counted along it
T13 sequence (P13569 whole entry G551S): as the sequence (P13569 whole entry G178R) above, with R178G, G551S counted along it

% Activity (ΔF508-CFTR): ++ (“++” means between 25% to 100%)
increase in chloride transport, relative to baseline chloride transport (human CFTR mutant A455E): greater than or equal to 10%
increase in chloride transport, relative to baseline chloride transport (human CFTR mutant D110E): greater than or equal to 10%
increase in chloride transport, relative to baseline chloride transport (human CFTR mutant D110H): greater than or equal to 10%
increase in chloride transport, relative to baseline chloride transport (human CFTR mutant D1152H): greater than or equal to 10%
increase in chloride transport, relative to baseline chloride transport (human CFTR mutant D1270N): greater than or equal to 10%
increase in chloride transport, relative to baseline chloride transport (human CFTR mutant D579G): greater than or equal to 10%
increase in chloride transport, relative to baseline chloride transport (human CFTR mutant E56K): greater than or equal to 10%
increase in chloride transport, relative to baseline chloride transport (human CFTR mutant F1074L): greater than or equal to 10%
increase in chloride transport, relative to baseline chloride transport (human CFTR mutant G1244E): greater than 10 fold
increase in chloride transport, relative to baseline chloride transport (human CFTR mutant G1349D): greater than 10 fold
increase in chloride transport, relative to baseline chloride transport (human CFTR mutant G178R): greater than 10 fold
increase in chloride transport, relative to baseline chloride transport (human CFTR mutant G551S): greater than 10 fold
Compound: CC(C)(C)c1cc(C(C)(C)C)c(NC(=O)c2c[nH]c3ccccc3c2=O)cc1O [Compound 1, N-[2,4-bis(1,1-dimethylethyl)-5-hydroxyphenyl]-1,4-dihydro-4-oxoquinoline-3-carboxamide]
